The values that follow come from US20090053138A1, “Stabilized Aptamers to Platelet Derived Growth Factor and their Use as Oncology Therapeutics” (priority 2002, published 2009).

{PEG40k} = 40 kDa polyethylene glycol; [invdT] = inverted (3'-3') thymidine; [HEG] = hexaethylene glycol spacer

One data set deals with T1, rat PDGF-BB (Rattus norvegicus, UniProt Q05028).
T1 construct: purchased PeproTech, Rocky Hill, N.J
The data set is described as follows: Cell migration assay, 3T3 cells. It is filed as cell-based. The settings on record: 100 nM aptamer, 5 nM PDGF BB, 24 well format. Here is the method: PDGF is a strong mitogen as well as a chemoattractant. […] In the cell migration assay 80,000 cells 3T3 rat fibroblasts (ATCC, Manassas, Va.) or RPE (retinal pigmented epithelial) cells (ATCC, Manassas, Va.) were plated per well into a 24 well plate with 8 micron filters (BD Biosciences, Discovery Labware, Bedford, Mass.). 0.5 ml DMEM/0.2% FCS was added to the top chamber and 0.8 ml DMEM/0.2% FCS was added to the bottom chamber. The system was equilibrated by incubating for 4 hours at 37 degrees celsius. Human PDGF-BB (PeproTech, Rocky Hill, N.J.) (for RPE cells) or rat PDGF-BB (PeproTech) (for 3T3 cells) was added to the bottom chamber (0 ng/ml-100 ng/ml final concentration). The system was incubated 4 hours to 12 hours. Cells were scraped off on the top of filter with a Q-tip. The cells that migrated to the bottom of the filter were fixed with a mixture of cold 50% Methanol/50% Acetone for 3 minutes.
Following incubation filters were washed with 1×PBS and stained with Giemsa Stain (Matheson Coleman and Bell) for 1-2 hours and migration was visualized by taking pictures on a Zeiss Axiovert 200M microscope.

For the next data set, the target named is PDGF BB (Homo sapiens, UniProt P01127). The data set is described as follows: 3T3 cell proliferation assay (PDGF-BB induced). It is filed as cell-based, rat. Also noted: purchased PeproTech, Rocky Hill, N.J. The method, then: 3T3 cells, a rat fibroblast cell line (ATCC, Manassas, Va.), were plated 3,000 cells/well in a 96 well plate one day prior to the start of the assay in 100 ul DMEM/10% FCS. The following day, cells were washed once with straight DMEM and then 75 ul DMEM/0.8% FCS was added to each well. […] Cells were incubated for 3 days. Following incubation 10 ul MTT (Promega, Madison, Wis.) was added to each well and incubated for an additional 1.5 hours. Media was then removed, 200 ul Isopropanol (2-propanol) was added to each well, cells were re-suspended thoroughly and absorbance at 570 nm was read on a 96 well plate reader.
Chain of PDGF BB (P01127 82-190 limits assumed): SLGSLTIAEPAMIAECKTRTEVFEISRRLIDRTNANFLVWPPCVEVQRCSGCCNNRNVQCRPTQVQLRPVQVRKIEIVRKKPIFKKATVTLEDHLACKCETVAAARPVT
(§1) 3T3 cells, which are derived from a rat fibroblast cell line (ATCC, Manassas, Va.), were used in a proliferation assay to test potency of modified ARC513 aptamers. 3T3 fibroblast cells have PDGF receptors on their cell-surface and respond to mitogen, e.g., PDGF stimulation by proliferation. The assay was performed as follows: 3T3 cells were plated 3,000 cells/well in a 96 well plate one day prior to the start of the assay in 100 ul DMEM/10% FCS. The following day, cells were washed once with straight DMEM and then 75 ul DMEM/0.8% FCS was added to each well. Then 25 ul of PDGF-BB (PeproTech, Rocky Hill, N.J.) at a 50 ng/ml final concentration was added to each well +/− aptamer condition to be tested. […] The functional PDGF aptamer dilutions usually consisted of 6 points in 2-fold serial dilutions.
Cells were incubated for 3 days. Following incubation 10 ul MTT (Promega, Madison, Wis.) was added to each well and incubated for an additional 1.5 hours. Media was removed, 200 μl Isopropanol (2-propanol) was added to each well, cells were re-suspended thoroughly and absorbance at 570 nm was read on a 96 well plate reader. The present example depicts the potency comparison of PDGF aptamer ARC: 513 to that of ARC 513 variants.
The 3T3 proliferation assay previously described was used to test potency of all PEG conjugated ARC513 variants described immediately above. The assay was performed as follows: 3T3 cells were plated 3,000 cells/well in a 96 well plate one day prior to the start of the assay in 100 ul DMEM/10% FCS. The following day, cells were washed once with straight DMEM and then 75 ul DMEM/0.8% FCS was added to each well. Then 25 ul of PDGF-BB (PeproTech, Rocky Hill, N.J.) at a 50 ng/ml final concentration was added to each well +/− aptamer condition to be tested. […] The functional PDGF aptamer dilutions usually consisted of 6 points in 2-fold serial dilutions.
Cells were incubated for 3 days. Following incubation 10 ul MTT (Promega, Madison, Wis.) was added to each well and incubated for an additional 1.5 hours. Media was removed, 200 μl Isopropanol (2-propanol) was added to each well, cells were re-suspended thoroughly and absorbance at 570 nm was read on a 96 well plate reader. The present example depicts the potency comparison of PDGF aptamer ARC513 to that of PEGylated ARC513 aptamers.
as §1, with “3T3” for “3T3 cells, which are derived from a rat fibroblast cell line (ATCC, Manassas, Va.), were used in a proliferation assay to test potency of modified ARC513 aptamers. 3T3”, “100 μl” for “100 ul”
Cells were incubated for 3 days. Following incubation 10 ul MTT (Promega, Madison, Wis.) was added to each well and incubated for an additional 1.5 hours. Media was removed, […] Isopropanol (2-propanol) was added to each well, cells were re-suspended thoroughly and absorbance at 570 nm was read on a 96 well plate reader.

T1 sequence (Q05028 66-174 limits assumed): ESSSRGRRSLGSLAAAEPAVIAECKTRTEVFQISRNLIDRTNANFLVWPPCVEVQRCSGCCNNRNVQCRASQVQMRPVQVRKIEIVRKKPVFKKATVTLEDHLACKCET

As for “5′-(SEQ ID NO.4)-HEG-(SEQ ID NO:5)-HEG-(SEQ ID NO:6)-3 (chain 1 CAGCGUACG; chain 2 CGTACCGATUCA; chain 3 TGAAGCUG; HEG spacers joining pieces; synthetic aptamer; modified_base (4)..(4) cytidine is 2′-fluoro; modified_base (5)..(5) gm; modified_base (6)..(6) uridine is 2′-fluoro; modified_base (8)..(8) cytidine is 2′-fluoro; modified_base (9)..(9) gm; modified_base (7)..(7) gm; modified_base (10)..(10) uridine is 2′-fluoro; modified_base (11)..(11) cytidine is 2′-fluoro; modified_base (12)..(12) adenosine is 2′-O-Methyl; modified_base (6)..(6) cytidine is 2′-fluoro; modified_base (7)..(7) uridine is 2′-fluoro; modified_base (8)..(8) gm) [ARC128, reference compound]”, the “migration of 3T3 cells” value in the data set with rat PDGF-BB is “no activity”. Also, the “effect on 3T3 cell proliferation” value with PDGF BB (scrambled control) was “never displays an effect”.

Consider “5′-[40 K PEG]-(SEQ ID NO:1)-HEG-(SEQ ID NO:2)-HEG-(SEQ ID NO:3)-3′-dT-3′ (chain 1 CAGGCUACG; chain 2 CGTAGAGCAUCA; chain 3 TGATCCUG; piece 1: 2'-fluoro at 6, 8, 2'-O-methyl at 9, 5' {PEG40k}, 3' [HEG], other sugars and backbone not given here; piece 2: 2'-O-methyl at 5, 7, 12, 2'-fluoro at 10, 11, 3' [HEG], other sugars and backbone not given here; piece 3: 2'-fluoro at 5, 6, 7, 2'-O-methyl at 8, 3' [invdT], other sugars and backbone not given here) [ARC127]”, for which the “migration of 3T3 cells” value with rat PDGF-BB is listed as “inhibits the effects of 5 nM PDGF-BB”. In the data set with PDGF BB, the “concentration reducing the PDGF driven increase in proliferation to background levels” value stood at 30 nM and the “potency compared to PDGF neutralizing polyclonal antibody” value is recorded as “better potency”. Further, the “potency of legacy aptamers vs newly synthesized” value in the data set with PDGF BB (after lyophilization and storage at −20 degrees celsius for 2 years) is given as “just as potent”. Also, the “effect of 5′ conjugation to 30 kDa and 40 kDa PEG groups on in vitro activity” value in the data set with PDGF BB (relative to ARC126) is reported as “does not significantly reduce the in vitro activity”.
